From PubChem BioAssay (NCI)
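Cultured in 96-well plates, cells were exposed to test compound for 48 hours across five concentrations. TGI is the concentration that stops growth completely.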

Tests used:
Test in all cases: NCI tumour cell line growth inhibition, 48 h
[1] = test system: TK-10 renal
[2] = test system: SF-539 CNS
[3] = test system: UACC-62 melanoma
[4] = test system: HOP-62 NSCLC
[5] = test system: OVCAR-3 ovarian
[6] = test system: COLO 205 colon
[7] = test system: SNB-19 CNS
[8] = test system: NCI-H23 lung
[9] = test system: CCRF-CEM leukemia
[10] = test system: IGROV1 ovarian
[11] = test system: NCI-H460 lung
[12] = test system: MDA-N
[13] = test system: RXF 393 renal
[14] = test system: MOLT-4 leukemia
[15] = test system: 786-0 renal
[16] = test system: SR leukemia
[17] = test system: PC-3 prostate
[18] = test system: CAKI-1 renal
[19] = test system: SNB-75 CNS
[20] = test system: T-47D breast
[21] = test system: NCI-H226 lung
[22] = test system: UO-31 renal
[23] = test system: MCF7 breast
[24] = test system: SF-268 CNS
[25] = test system: A549 NSCLC
[26] = test system: OVCAR-4 ovarian
[27] = test system: SK-MEL-5 melanoma
[28] = test system: DU-145 prostate
[29] = test system: HCT-116 colon
[30] = test system: KM12 colon
[31] = test system: SK-MEL-28 melanoma
[32] = test system: EKVX NSCLC
[33] = test system: K-562 leukemia
[34] = test system: SF-295 CNS
[35] = test system: U251 CNS
[36] = test system: SW-620 colon
[37] = test system: M14 melanoma
[38] = test system: BT-549 breast
[39] = test system: HCC-2998 colon
[40] = test system: HOP-92 NSCLC
[41] = test system: HCT-15 colon
[42] = test system: MDA-MB-435
[43] = test system: OVCAR-8 ovarian
[44] = test system: RPMI-8226 leukemia
[45] = test system: LOX IMVI melanoma
[46] = test system: HL-60(TB) leukemia
[47] = test system: A498 renal
[48] = test system: MALME-3M melanoma
[49] = test system: ACHN renal
[50] = test system: SK-MEL-2 melanoma
[51] = test system: UACC-257 melanoma
[52] = test system: NCI/ADR-RES ovarian
[53] = test system: MDA-MB-231 breast
[54] = test system: OVCAR-5 ovarian
[55] = test system: HS 578T breast
[56] = test system: SN12C renal
[57] = test system: SK-OV-3 ovarian
[58] = test system: HT29 colon
[59] = test system: NCI-H522 lung
[60] = test system: LXFL 529 NSCLC
[61] = test system: M19-MEL melanoma
[62] = test system: DLD-1 colon
[63] = test system: DMS 114 small cell lung
[64] = test system: DMS 273 small cell lung

For `Clc1nc(NC23CC4CC(CC(C4)C2)C3)nc(NC23CC4CC(CC(C4)C2)C3)n1`, the TGI [1] was > 100 µM, the TGI [2] was > 100 µM and the TGI [3] was > 100 µM. For the same compound, the TGI [4] was > 100 µM, the TGI [5] was > 100 µM and the TGI [6] was > 100 µM. For the same compound, the TGI [7] was > 100 µM, the TGI [8] was > 100 µM and the TGI [9] was > 90.8 µM. The TGI [10] was > 100 µM, the TGI [11] was > 100 µM and the TGI [12] was > 100 µM. The TGI [13] was > 80.2 µM, the TGI [14] was > 100 µM and the TGI [15] was > 100 µM. For the same compound, the TGI [16] was > 100 µM, the TGI [17] was > 40.6 µM and the TGI [18] was > 100 µM. The TGI [19] was > 78 µM, the TGI [20] was > 89 µM and the TGI [21] was > 100 µM. For the same compound, the TGI [22] was > 100 µM, the TGI [23] was > 100 µM and the TGI [24] was > 100 µM. For the same compound, the TGI [25] was > 100 µM, the TGI [26] was > 100 µM and the TGI [27] was > 100 µM. The TGI [28] was > 100 µM, the TGI [29] was > 100 µM and the TGI [30] was > 100 µM. The TGI [31] was > 100 µM, the TGI [32] was > 100 µM and the TGI [33] was 47 µM. The TGI [34] was > 100 µM, the TGI [35] was > 69 µM and the TGI [36] was > 100 µM. For the same compound, the TGI [37] was > 100 µM, the TGI [38] was > 100 µM and the TGI [39] was > 100 µM. The TGI [40] was > 100 µM, the TGI [41] was > 100 µM and the TGI [42] was > 100 µM. For the same compound, the TGI [43] was > 100 µM, the TGI [44] was > 100 µM and the TGI [45] was > 100 µM. For the same compound, the TGI [46] was 87.5 µM, the TGI [47] was > 100 µM and the TGI [48] was > 100 µM. For the same compound, the TGI [49] was > 100 µM, the TGI [50] was 57.6 µM and the TGI [51] was > 100 µM. For the same compound, the TGI [52] was > 100 µM, the TGI [53] was > 76.3 µM and the TGI [54] was > 100 µM. For the same compound, the TGI [55] was > 100 µM, the TGI [56] was > 100 µM and the TGI [57] was > 100 µM. The TGI [58] was > 100 µM.

In the case of `Cc1ccc2c(n1)C(=O)c1cc(C)c(C)cc1C2=O`, the TGI [1] is reported as > 100 µM, the TGI [2] is reported as > 100 µM and the TGI [3] is reported as > 100 µM. The TGI [4] was > 100 µM, the TGI [5] was 67.3 µM and the TGI [6] was > 100 µM. For the same compound, the TGI [7] was > 100 µM, the TGI [8] was > 100 µM and the TGI [9] was > 100 µM. For the same compound, the TGI [10] was > 100 µM, the TGI [11] was > 100 µM and the TGI [12] was > 100 µM. The TGI [13] was > 100 µM, the TGI [14] was > 100 µM and the TGI [15] was > 100 µM. The TGI [16] was 85.1 µM, the TGI [17] was > 100 µM and the TGI [18] was > 100 µM. For the same compound, the TGI [19] was 73 µM, the TGI [20] was > 100 µM and the TGI [21] was > 100 µM. The TGI [22] was > 100 µM, the TGI [23] was > 100 µM and the TGI [24] was > 100 µM. The TGI [25] was > 100 µM, the TGI [26] was > 100 µM and the TGI [27] was 79.1 µM. For the same compound, the TGI [28] was > 100 µM, the TGI [29] was > 100 µM and the TGI [30] was > 100 µM. For the same compound, the TGI [31] was > 100 µM, the TGI [32] was > 100 µM and the TGI [33] was > 100 µM. The TGI [34] was > 100 µM, the TGI [35] was > 100 µM and the TGI [36] was > 100 µM. For the same compound, the TGI [37] was > 100 µM, the TGI [38] was > 100 µM and the TGI [39] was > 100 µM. The TGI [59] was 56.8 µM, the TGI [40] was > 100 µM and the TGI [41] was > 100 µM. The TGI [42] was > 100 µM, the TGI [43] was > 100 µM and the TGI [44] was > 100 µM. For the same compound, the TGI [45] was > 100 µM, the TGI [46] was > 100 µM and the TGI [47] was > 100 µM. For the same compound, the TGI [48] was > 100 µM, the TGI [49] was > 100 µM and the TGI [50] was > 100 µM. For the same compound, the TGI [51] was > 100 µM, the TGI [52] was > 100 µM and the TGI [53] was > 100 µM. For the same compound, the TGI [54] was > 100 µM, the TGI [55] was > 100 µM and the TGI [56] was > 100 µM. The TGI [57] was > 100 µM and the TGI [58] was > 100 µM.

`CCN(CC)CCNc1ccc2nc(C)n3c4ccc(OC)cc4c(=O)c1c23` showed a TGI [1] of 4.75 µM, a TGI [2] of 18.7 µM and a TGI [3] of 20 µM. For the same compound, the TGI [4] was 21.7 µM, the TGI [60] was 17.5 µM and the TGI [5] was 19.8 µM. The TGI [6] was 13 µM, the TGI [7] was 13.7 µM and the TGI [61] was 19.5 µM. It also gave a TGI [8] of 18.3 µM, a TGI [9] of 1.19 µM and a TGI [10] of 4.26 µM. The TGI [11] was 2.42 µM, the TGI [12] was 17.2 µM and the TGI [13] was 10.5 µM. It also gave a TGI [14] of 1.15 µM, a TGI [15] of 7.88 µM and a TGI [16] of 0.56 µM. The TGI [62] was 10.9 µM, the TGI [17] was 17.5 µM and the TGI [18] was 13 µM. For the same compound, the TGI [19] was 19 µM, the TGI [20] was 33.8 µM and the TGI [21] was 7.11 µM. The TGI [22] was 16.3 µM, the TGI [23] was 6.57 µM and the TGI [24] was 15.3 µM. For the same compound, the TGI [25] was 15 µM, the TGI [26] was 8.25 µM and the TGI [27] was 19.1 µM. It also gave a TGI [28] of 13.3 µM, a TGI [29] of 6 µM and a TGI [30] of 14.6 µM. For the same compound, the TGI [31] was 25.9 µM, the TGI [32] was 13.9 µM and the TGI [33] was 4.13 µM. The TGI [34] was 7.82 µM, the TGI [35] was 20.6 µM and the TGI [36] was 9.27 µM. For the same compound, the TGI [37] was 24.1 µM, the TGI [38] was 22.5 µM and the TGI [39] was 6.2 µM. For the same compound, the TGI [59] was 2.74 µM, the TGI [40] was 20.7 µM and the TGI [41] was 10.3 µM. It also gave a TGI [42] of 27.1 µM, a TGI [43] of 9.25 µM and a TGI [63] of 14.6 µM. The TGI [64] was 11.5 µM, the TGI [44] was 5.34 µM and the TGI [45] was 2.55 µM. The TGI [46] was 2.96 µM, the TGI [47] was 20.6 µM and the TGI [48] was 21.7 µM. It also gave a TGI [49] of 13.3 µM, a TGI [50] of 28 µM and a TGI [51] of 22.3 µM. For the same compound, the TGI [52] was 15.1 µM, the TGI [53] was 16.9 µM and the TGI [54] was 20.3 µM. For the same compound, the TGI [55] was 6.68 µM, the TGI [56] was 15.2 µM and the TGI [57] was 19.5 µM. The TGI [58] was 1.99 µM.
